Test results published in PubChem BioAssay AID1963827 (Molecular Pharmacology Branch, DTP, NCI, 2024).

Test system: 994946-033-R-J1-PDC complex spheroid viability
Assay: Anticancer human tumor 994946-033-R-J1-PDC patient-derived melanoma cell line growth inhibition [POLQ]
Settings: for IC50: curve of first compound; for viability, T/C: stronger effect = lower value; active = viability on the fitted dose curve at most 10% of control; inactive = the rest
Procedure: Multicellular complex tumor spheroid response to Polymerase (POL) inhibitors (novobiocin, ART-558, RP6685) in combination with a variety of drugs and investigational agents in selected tumor cell lines
The POL inhibitors (novobiocin, ART-558, and RP6685) were evaluated both individually and in combination with standard of care and investigational anticancer small molecules within a complex spheroid model of solid tumors. . Complex spheroids include a stromal component modeled by human endothelial cells (HUVEC) and fibroblasts modeled by human mesenchymal stem cells (MSCs). The concentration ranges selected for each drug and investigational agent were based upon clinically achievable concentrations if the clinical Cmax of the agent was known.
Compounds. The drugs and investigational agents: novobiocin (NSC847541), ART-558 (NSC835418), RP-6685 (NSC848927), peposertib (NSC802822), ceralasertib (NSC780249), elimusertib (NSC800525), camonsertib (NSC841442), AZD-1390 (NSC803789), olaparib (NSC753686), talazoparib (NSC767125), rucaparib (NSC756644), sotorasib (NSC818433), MRTX-1133 (NSC836407), SN-38 (NSC673596), topotecan (NSC609699), epotoside (NSC141540), doxorubicin (NSC123127), gemcitabine (NSC613327), 5-fluorouracil (NSC19893), paclitaxel (NSC125973), vemurafenib (NSC761431), MSA-2 (NSC828583), SN-011 (NSC837082), adavosertib (NSC754352), prexasertib (NSC758257), carboplatin (NSC241240) and oxaliplatin (NSC266046), were obtained from the National Cancer Institute (NCI) Developmental Therapeutics Program Chemical Repository (21). The FDA-approved anticancer drug set is available from the Developmental Therapeutics Program at https://dtp.cancer.gov/organization/dscb/obtaining/. […] The stock solutions were prepared in dimethyl sulfoxide (DMSO, Sigma-Aldrich, St. Louis, MO, cat. D2650), except for the platinum compounds which were prepared in saline (Quality Biological, Gaithersburg, MD, cat. 114-055-101), at 800-fold the tested concentration and stored at -70 degrees C prior to their use. All drugs and investigational agents were tested over a range starting from a high concentration at or near the clinical Cmax and decreasing in half-log increments. If the clinical Cmax for an agent had not been determined, the highest concentration tested was 10 microM, except for SN-38, which was tested at a high concentration of 1 microM.
Cell Culture. All cells were maintained in an incubator at 37 degrees C and 5% CO2 with 95% humidity. The PDC lines were cultured according to standard operating procedures established by the NCI PDMR (https://pdmr.cancer.gov). Table 3 of the manuscript, lists the cell lines along with the number of the three cell types plated to form the mct-spheroids and media for tumor cell growth. After thawing, all PDC lines, except 997537-175-T-J1-PDC and 415267-285-R-J2-PDC, were cultured in Matrigel-coated flasks prepared with a working solution of 1X Ham's F-12 nutrient mix, without supplementation (Thermo Fisher Scientific, cat. 11765054), 100 U/mL penicillin-streptomycin (Thermo Fisher Scientific, cat. 15140122), and 2.5% Matrigel (Corning Inc., Corning, NY, cat. 354248) for the first three passages. The two PDC lines 997537-175-T-J1-PDC and 415267-285-R-J2-PDC were cultured on uncoated flasks. The 857933-349-R-J2-PDC line was cultured in 6C/Colon 1B media containing advanced DMEM/F-12 (Thermo Fisher Scientific, cat. 12634028), 10 mM HEPES (Thermo Fisher Scientific, cat. 15630080), 1X GlutaMAX supplement (Thermo Fisher Scientific, cat. 35050061), 0.1 mg/mL primocin (InvivoGen, San Diego, CA, cat. ant-pm-2), 10% defined fetal bovine serum, heat inactivated (HyClone Laboratories Inc., Logan, UT, cat. SH30070.03HI), 50% L-WRN conditioned media (ATCC, cat. CRL-3276), 1.25 mM N-Acetyl-L-cysteine (Sigma-Aldrich, cat. A9165), 10 mM nicotinamide (Sigma-Aldrich, cat. N0636), 1X B-27 supplement (Thermo Fisher Scientific, cat. 17504044), 1X N-2 supplement (Thermo Fisher Scientific, cat. […]

[1] = second compound 0.0316 µM, first compound 0.0316 µM
[2] = second compound 0.0316 µM, first compound 0.1 µM
[3] = second compound 0.0316 µM, first compound 0.316 µM
[4] = second compound 0.0316 µM, first compound 1 µM
[5] = second compound 0.0316 µM, first compound 3.16 µM
[6] = second compound 0.0316 µM, first compound 10 µM
[7] = second compound 0.1 µM, first compound 0.0316 µM
[8] = second compound 0.1 µM, first compound 0.1 µM
[9] = second compound 0.1 µM, first compound 0.316 µM
[10] = second compound 0.1 µM, first compound 1 µM
[11] = second compound 0.1 µM, first compound 3.16 µM
[12] = second compound 0.1 µM, first compound 10 µM
[13] = second compound 0.316 µM, first compound 0.0316 µM
[14] = second compound 0.316 µM, first compound 0.1 µM
[15] = second compound 0.316 µM, first compound 0.316 µM
[16] = second compound 0.316 µM, first compound 1 µM
[17] = second compound 0.316 µM, first compound 3.16 µM
[18] = second compound 0.316 µM, first compound 10 µM
[19] = second compound 1 µM, first compound 0.0316 µM
[20] = second compound 1 µM, first compound 0.1 µM
[21] = second compound 1 µM, first compound 0.316 µM
[22] = second compound 1 µM, first compound 1 µM
[23] = second compound 1 µM, first compound 3.16 µM
[24] = second compound 1 µM, first compound 10 µM
[25] = second compound 3.16 µM, first compound 0.0316 µM
[26] = second compound 3.16 µM, first compound 0.1 µM
[27] = second compound 3.16 µM, first compound 0.316 µM
[28] = second compound 3.16 µM, first compound 1 µM
[29] = second compound 3.16 µM, first compound 3.16 µM
[30] = second compound 3.16 µM, first compound 10 µM
[31] = second compound 10 µM, first compound 0.0316 µM
[32] = second compound 10 µM, first compound 0.1 µM
[33] = second compound 10 µM, first compound 0.316 µM
[34] = second compound 10 µM, first compound 1 µM
[35] = second compound 10 µM, first compound 3.16 µM
[36] = second compound 10 µM, first compound 10 µM
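Also: spheroids exposed to drugs for 7 days.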
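For viability, T/C in this document: 100% = DMSO vehicle treated spheroids.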

C=CC(=O)N1CCN(c2nc(=O)n(-c3c(C)ccnc3C(C)C)c3nc(-c4c(O)cccc4F)c(F)cc23)C(C)C1 (centres undefined) + COC1C(OC(N)=O)C(O)C(Oc2ccc3c(O)c(NC(=O)c4ccc(O)c(CC=C(C)C)c4)c(=O)oc3c2C)OC1(C)C
inactive: viability, T/C [1] 80.4% | viability, T/C [2] 110% | viability, T/C [3] 104% | viability, T/C [4] 101% | viability, T/C [5] 104% | viability, T/C [6] 95.5% | viability, T/C [7] 102% | viability, T/C [8] 105% | viability, T/C [9] 87.5% | viability, T/C [10] 99.5% | viability, T/C [11] 90.8% | viability, T/C [12] 114% | viability, T/C [13] 92.8% | viability, T/C [14] 111% | viability, T/C [15] 119% | viability, T/C [16] 99% | viability, T/C [17] 138% | viability, T/C [18] 104% | viability, T/C [19] 112% | viability, T/C [20] 93.5% | viability, T/C [21] 118% | viability, T/C [22] 85.9% | viability, T/C [23] 112% | viability, T/C [24] 75.7% | viability, T/C [25] 94% | viability, T/C [26] 108% | viability, T/C [27] 113% | viability, T/C [28] 105% | viability, T/C [29] 93.3% | viability, T/C [30] 115% | viability, T/C [31] 98.1% | viability, T/C [32] 81.7% | viability, T/C [33] 99.9% | viability, T/C [34] 124% | viability, T/C [35] 86.9% | viability, T/C [36] 105%
> 10 µM: IC50 (second compound 0.0316 µM) | IC50 (second compound 0.1 µM) | IC50 (second compound 0.316 µM) | IC50 (second compound 1 µM) | IC50 (second compound 3.16 µM) | IC50 (second compound 10 µM)

CCc1cc2c(N3CCc4c(cc(Cn5ccnc5)cc4-c4cn(C)nc4C(F)(F)F)C3=O)ccnc2c(OC)n1 + COC1C(OC(N)=O)C(O)C(Oc2ccc3c(O)c(NC(=O)c4ccc(O)c(CC=C(C)C)c4)c(=O)oc3c2C)OC1(C)C
> 10 µM: IC50 (second compound 0.0316 µM) | IC50 (second compound 0.1 µM) | IC50 (second compound 0.316 µM) | IC50 (second compound 1 µM) | IC50 (second compound 3.16 µM) | IC50 (second compound 10 µM)
inactive: viability, T/C [1] 98.9% | viability, T/C [2] 72.2% | viability, T/C [3] 61.1% | viability, T/C [4] 73.3% | viability, T/C [5] 63.3% | viability, T/C [6] 70% | viability, T/C [7] 92.7% | viability, T/C [8] 77.8% | viability, T/C [9] 96.2% | viability, T/C [10] 78.8% | viability, T/C [11] 61.2% | viability, T/C [12] 81.2% | viability, T/C [13] 100% | viability, T/C [14] 98.3% | viability, T/C [15] 70.6% | viability, T/C [16] 66.1% | viability, T/C [17] 86.4% | viability, T/C [18] 63.7% | viability, T/C [19] 91.6% | viability, T/C [20] 75.7% | viability, T/C [21] 94.1% | viability, T/C [22] 85.3% | viability, T/C [23] 68.1% | viability, T/C [24] 69% | viability, T/C [25] 91.9% | viability, T/C [26] 77.3% | viability, T/C [27] 81.7% | viability, T/C [28] 73.8% | viability, T/C [29] 74.3% | viability, T/C [30] 54% | viability, T/C [31] 91.7% | viability, T/C [32] 77.6% | viability, T/C [33] 67.1% | viability, T/C [34] 81.2% | viability, T/C [35] 64.3% | viability, T/C [36] 58.9%
